Values after ≈ are worked out from the molar mass of the structure shown. Like-named read-outs stand apart in the source and are kept apart here.
How the values were obtained:
Escherichia coli 1507 E = assay: MIC, standard strain 11; format: cell-based; conditions: read-out: Minimal Inhibitory Concentration(MIC)
Procedure: (§1) In order to illustrate antibiotic effectiveness of the compounds of the present invention, the minimal inhibitory concentrations (MIC's) of the representative compounds were determined against standard strains and compared with ceftazidime and cefpirome, which were used as control compounds.
(§2) The MIC values were taken by employing a two-fold dilution method: that is, two-fold serial dilutions of each of the test compounds were made from initial concentration of […]; each 1.5 ml of them was dispersed in 13.5 ml of Muller Hinton agar medium to adjust to […]; the standard test strain which had the concentration of 10^7 CFU/ml was inoculated by medium;and these were incubated at 37° C. for 18 hours.
(§3) The test used twenty kinds of standard test strains which induced urinary tract infections, respiratory organ infections, skin soft tissue infections, plasma infections, gastrointestinal infections, central nervous system infections, most of which produce β-lactamase.

[1] = system: Staphylococcus aureus 285; assay: MIC, standard strain 5; format: cell-based; conditions: read-out: Minimal Inhibitory Concentration(MIC)
Procedure: as §1, §2
as §3, with “β-lactamase. The standard test strains used are as follows:” for “β-lactamase.”
5. Staphylococcus aureus 285

[2] = system: Pseudomonas aeruginosa 1771M; assay: MIC, standard strain 15; format: cell-based; conditions: 18 h, read-out: Minimal Inhibitory Concentration(MIC)
Procedure: as §1, §2
as §3, with “β-lactamase. The standard test strains used are as follows:” for “β-lactamase.”
15. Pseudomonas aeruginosa 1771M

[3] = system: Klebsiella aerogenes 1552 E; assay: MIC, standard strain 18; format: cell-based; conditions: read-out: Minimal Inhibitory Concentration(MIC)
Procedure: as §1, §2
as §3, with “β-lactamase. The standard test strains used are as follows:” for “β-lactamase.”
18. Klebsiella aerogenes 1552 E

Streptococcus faecium 8b = assay: MIC, standard strain 3; format: cell-based; conditions: Enterococcus faecium, read-out: Minimal Inhibitory Concentration(MIC)
Procedure: as §1, §2
as §3, with “β-lactamase. The standard test strains used are as follows:” for “β-lactamase.”
3. Streptococcus faecium 8b

Escherichia coli DC 2 = assay: MIC, standard strain 9; format: cell-based; conditions: DC2, E. coli DC 2, two-fold dilution, Muller Hinton agar, 10^7 CFU/ml, 37° C., 18 hours, read-out: Minimal Inhibitory Concentration(MIC)
Procedure: as §1, §2, §3

MRSA(Yonsei Univ.) = assay: MIC, clinically separated strains; format: cell-based
Procedure: as §2

[4] = system: Pseudomonas aeruginosa 9.027; assay: MIC, standard strain 12; format: cell-based; conditions: read-out: Minimal Inhibitory Concentration(MIC)
Procedure: as §1, §2
as §3, with “β-lactamase. The standard test strains used are as follows:” for “β-lactamase.”
12. Pseudomonas aeruginosa 9.027

[5] = system: Streptococcus pyogenes A 308; assay: MIC, standard strain 1; format: cell-based; conditions: A308, 18 h, read-out: Minimal Inhibitory Concentration(MIC)
Procedure: as §1, §2
as §3, with “β-lactamase. The standard test strains used are as follows:” for “β-lactamase.”
1. Streptococcus pyogenes A 308

Escherichia coli TEM = assay: MIC, standard strain 10; format: cell-based; conditions: 18 h, read-out: Minimal Inhibitory Concentration(MIC)
Procedure: as §1, §2, §3

[6] = system: Pseudomonas aeruginosa 1592 E; assay: MIC, standard strain 13; format: cell-based; conditions: read-out: Minimal Inhibitory Concentration(MIC)
Procedure: as §1, §2
as §3, with “β-lactamase. The standard test strains used are as follows:” for “β-lactamase.”
13. Pseudomonas aeruginosa 1592 E

[7] = system: Pseudomonas aeruginosa 1771; assay: MIC, standard strain 14; format: cell-based; conditions: read-out: Minimal Inhibitory Concentration(MIC)
Procedure: as §1, §2
as §3, with “β-lactamase. The standard test strains used are as follows:” for “β-lactamase.”
14. Pseudomonas aeruginosa 1771

[8] = system: Enterobacter cloacae 1321 E; assay: MIC, standard strain 20; format: cell-based; conditions: read-out: Minimal Inhibitory Concentration(MIC)
Procedure: as §1, §2
as §3, with “β-lactamase. The standard test strains used are as follows:” for “β-lactamase.”
20. Enterobacter cloacae 1321 E

Escherichia coli 0 55 = assay: MIC, standard strain 7; format: cell-based; conditions: 055, E. coli 0 55, two-fold dilution, Muller Hinton agar, 10^7 CFU/ml, 37° C., 18 hours, read-out: Minimal Inhibitory Concentration(MIC)
Procedure: as §1, §2, §3

Salmonella typhimurium = assay: MIC, standard strain 16; format: cell-based; conditions: Salmonella enterica, read-out: Minimal Inhibitory Concentration(MIC)
Procedure: as §1, §2
as §3, with “β-lactamase. The standard test strains used are as follows:” for “β-lactamase.”
16. Salmonella typhimurium

Escherichia coli DC 0 = assay: MIC, standard strain 8; format: cell-based; conditions: DC0, E. coli DC 0, two-fold dilution, Muller Hinton agar, 10^7 CFU/ml, 37° C., 18 hours, read-out: Minimal Inhibitory Concentration(MIC)
Procedure: as §1, §2, §3

acute toxicity test = conditions: in vivo; acute toxicity, intravenous injection
[9] = system: Staphylococcus aureus 503; assay: MIC, standard strain 6; format: cell-based; conditions: read-out: Minimal Inhibitory Concentration(MIC)
Procedure: as §1, §2
as §3, with “β-lactamase. The standard test strains used are as follows:” for “β-lactamase.”
6. Staphylococcus aureus 503

[10] = system: Enterobacter cloacae P 99; assay: MIC, standard strain 19; format: cell-based; conditions: P99, 18 h, read-out: Minimal Inhibitory Concentration(MIC)
Procedure: as §1, §2
as §3, with “β-lactamase. The standard test strains used are as follows:” for “β-lactamase.”
19. Enterobacter cloacae P 99

[11] = system: Streptococcus pyogenes A 77; assay: MIC, standard strain 2; format: cell-based; conditions: read-out: Minimal Inhibitory Concentration(MIC)
Procedure: as §1, §2
as §3, with “β-lactamase. The standard test strains used are as follows:” for “β-lactamase.”
2. Streptococcus pyogenes A 77

[12] = system: Staphylococcus aureus SG 511; assay: MIC, standard strain 4; format: cell-based; conditions: SG511, 18 h, read-out: Minimal Inhibitory Concentration(MIC)
Procedure: as §1, §2
as §3, with “β-lactamase. The standard test strains used are as follows:” for “β-lactamase.”
4. Staphylococcus aureus SG 511

Pseudomonas = conditions: compared with DQ-2556 or ceftazidime; cited from earlier work
Staphylococcus = conditions: compared with DQ-2556; cited from earlier work

Compound: CO/N=C(\C(=O)N[C@@H]1C(=O)N2C(C(=O)[O-])=C(C[n+]3ccc(C(N)=S)c4c3CCC4)CS[C@H]12)c1csc(N)n1 [Example 5, 7-β-[(Z)-2-(2-aminothiazol-4-yl)-2-methoxyiminoacetamido]-3-[(2,3-cyclopenteno-4-thiocarbamoyl-1-pyridinium)methyl]-3-cephem-4-carboxylate]
- MIC (Escherichia coli 1507 E; E. coli 1507 E, two-fold dilution, Muller Hinton agar, 10^7 CFU/ml, 37° C., 18 hours): 98 µg/mL (≈ 171 µM)
- MIC ([1]; Staphylococcus aureus, S. aureus 285, two-fold dilution, Muller Hinton agar, 10^7 CFU/ml, 37° C., 18 hours): 1560 µg/mL (≈ 2720 µM)
- MIC [2]: 391 µg/mL (≈ 682 µM)
- MIC ([3]; K. aerogenes 1552 E, two-fold dilution, Muller Hinton agar, 10^7 CFU/ml, 37° C., 18 hours): 49 µg/mL (≈ 85.4 µM)
- MIC (Streptococcus faecium 8b; S. faecium 8b, two-fold dilution, Muller Hinton agar, 10^7 CFU/ml, 37° C., 18 hours): 12500 µg/mL (≈ 21800 µM)
- MIC (Escherichia coli DC 2): 25 µg/mL (≈ 43.6 µM)
- antibiotic activities against MRSA(Yonsei Univ.), in words (MRSA(Yonsei Univ.)): unexpectedly potent antibiotic activities
- MIC ([4]; Pseudomonas aeruginosa, P. aeruginosa 9.027, two-fold dilution, Muller Hinton agar, 10^7 CFU/ml, 37° C., 18 hours): 6250 µg/mL (≈ 10900 µM)
- MIC [5]: 4 µg/mL (≈ 6.97 µM)
- MIC (Escherichia coli TEM): 98 µg/mL (≈ 171 µM)
- MIC ([6]; P. aeruginosa 1592 E, two-fold dilution, Muller Hinton agar, 10^7 CFU/ml, 37° C., 18 hours): 3120 µg/mL (≈ 5450 µM)
- MIC ([7]; Pseudomonas aeruginosa, P. aeruginosa 1771, two-fold dilution, Muller Hinton agar, 10^7 CFU/ml, 37° C., 18 hours): 1560 µg/mL (≈ 2720 µM)
- MIC ([8]; E. cloacae 1321 E, two-fold dilution, Muller Hinton agar, 10^7 CFU/ml, 37° C., 18 hours): 13 µg/mL (≈ 22.7 µM)
- MIC (Escherichia coli 0 55): 49 µg/mL (≈ 85.4 µM)
- MIC (Salmonella typhimurium; S. typhimurium, two-fold dilution, Muller Hinton agar, 10^7 CFU/ml, 37° C., 18 hours): 49 µg/mL (≈ 85.4 µM)
- MIC (Escherichia coli DC 0): 98 µg/mL (≈ 171 µM)
- LD50 (acute toxicity test): > 3000 mg/kg
- MIC ([9]; Staphylococcus aureus, S. aureus 503, two-fold dilution, Muller Hinton agar, 10^7 CFU/ml, 37° C., 18 hours): 391 µg/mL (≈ 682 µM)
- MIC [10]: 6250 µg/mL (≈ 10900 µM)
- MIC ([11]; A77, S. pyogenes A 77, two-fold dilution, Muller Hinton agar, 10^7 CFU/ml, 37° C., 18 hours): 2 µg/mL (≈ 3.49 µM)
- MIC [12]: 781 µg/mL (≈ 1360 µM)

Compound: CC(C)(O/N=C(\C(=O)N[C@@H]1C(=O)N2C(C(=O)[O-])=C(C[n+]3ccccc3)CS[C@H]12)c1csc(N)n1)C(=O)O [ceftazidime, reference compound]
- MIC (Escherichia coli 1507 E; 1507E, 18 h): 195 µg/mL (≈ 357 µM)
- MIC ([1]; Staphylococcus aureus, 285, 18 h): 12500 µg/mL (≈ 22900 µM)
- MIC [2]: 98 µg/mL (≈ 179 µM)
- MIC ([3]; 1552E, 18 h): 98 µg/mL (≈ 179 µM)
- MIC (Streptococcus faecium 8b; 8B, 18 h): 100000 µg/mL (≈ 183000 µM)
- MIC (Escherichia coli DC 2): 98 µg/mL (≈ 179 µM)
- MIC ([4]; Pseudomonas aeruginosa, 9.027, 18 h): 3120 µg/mL (≈ 5720 µM)
- activity against Pseudomonas, in words (Pseudomonas): higher activity against Pseudomonas
- MIC [5]: 98 µg/mL (≈ 179 µM)
- MIC (Escherichia coli TEM): 195 µg/mL (≈ 357 µM)
- MIC ([6]; 1592E, 18 h): 781 µg/mL (≈ 1430 µM)
- MIC ([7]; Pseudomonas aeruginosa, 1771, 18 h): 391 µg/mL (≈ 715 µM)
- MIC ([8]; 1321E, 18 h): 25 µg/mL (≈ 45.7 µM)
- MIC (Escherichia coli 0 55): 98 µg/mL (≈ 179 µM)
- MIC (Salmonella typhimurium; TYPHIMURIUM, 18 h): 195 µg/mL (≈ 357 µM)
- MIC (Escherichia coli DC 0): 98 µg/mL (≈ 179 µM)
- MIC ([9]; Staphylococcus aureus, 503, 18 h): 98 µg/mL (≈ 179 µM)
- MIC [10]: 100000 µg/mL (≈ 183000 µM)
- activity against Staphylococcus, in words (Staphylococcus): relatively low activity against Staphylococcus
- MIC ([11]; A77, 18 h): 49 µg/mL (≈ 89.6 µM)
- MIC [12]: 12500 µg/mL (≈ 22900 µM)

From patent publication US5593985A, “Cephalosporin compounds” (priority 1994, dated 1997)
